Data: ChEMBL document CHEMBL1128751, “Isolation and structure of the human cancer cell growth inhibitory cyclic decapeptides phakellistatins 7, 8 and 91,2” (1995)
Values after ≈ are worked out from the molar mass of the structure shown. Where a SMILES comes first, the peptide text is derived from it.

Experiments:
NCI = test: Overall panel averaged growth inhibitory concentration against the U. S. National Cancer Institute panel of sixty human cancer cell lines; assay type: functional
P388 = test: In vitro inhibition of growth of p388 cells; assay type: functional; settings: Mus musculus, read-out: ED50 (the source's name)

| EC50 (P388) | SMILES | GI50 (NCI) |
| --- | --- | --- |
| 3 µg/mL (≈ 2.7 µM) | CC[C@H](C)[C@@H]1NC(=O)[C@@H]2CCCN2C(=O)[C@@H]2CCCN2C(=O)[C@H]([C@@H](C)CC)NC(=O)[C@H](Cc2ccc(O)cc2)NC(=O)[C@@H]2CCCN2C(=O)[C@@H]2CCCN2C(=O)[C@H](CC(C)C)NC(=O)[C@H](C)NC(=O)[C@H](Cc2ccccc2)NC1=O (cyclo(ALPPYIPPIF)) | 0.55 µM |
| 4.1 µg/mL (≈ 3.65 µM) | CC[C@H](C)[C@@H]1NC(=O)[C@@H]2CCCN2C(=O)[C@@H]2CCCN2C(=O)[C@H](C(C)C)NC(=O)[C@H](Cc2ccc(O)cc2)NC(=O)[C@@H]2CCCN2C(=O)[C@@H]2CCCN2C(=O)[C@H](CC(C)C)NC(=O)[C@H](C(C)C)NC(=O)[C@H](Cc2ccccc2)NC1=O (cyclo(FVLPPYVPPI)) | > 10 µM |
| 2.9 µg/mL (≈ 2.55 µM) | CC[C@H](C)[C@@H]1NC(=O)[C@@H]2CCCN2C(=O)[C@@H]2CCCN2C(=O)[C@H]([C@@H](C)CC)NC(=O)[C@H](Cc2ccc(O)cc2)NC(=O)[C@@H]2CCCN2C(=O)[C@@H]2CCCN2C(=O)[C@H](CC(C)C)NC(=O)[C@H](C(C)C)NC(=O)[C@H](Cc2ccccc2)NC1=O (cyclo(FVLPPYIPPI)) | > 10 µM |
